The values that follow are results of earlier work, collected in US11957648B2, “Method of initiating or escalating dofetilide dose and formulations therefor” (Academic Pharmaceuticals, Inc., priority 2018, dated 2024).

One series has as its system QTc interval. The note with it: slope of plasma concentration vs QTc; Sedgwick et al; cited from earlier work.
For series [1] the following is noted: oral dosing; cited from earlier work.

Molecules are shown by their SMILES.

With `CN(CCOc1ccc(NS(C)(=O)=O)cc1)CCc1ccc(NS(C)(=O)=O)cc1` [Dofetilide, β-((p-methanesulfonamidophenethyl)methylamino)methanesulfono-p-phenetidide], the “QTc change per dofetilide plasma concentration” value in the series on QTc interval was 15 to 25 ms/ng/mL. Further, the “time to reach steady state concentration” value in series [1] was “at least 3 days”.
